Source: publication PMC4349960, “[^18F]FE@SUPPY: a suitable PET tracer for the adenosine A3 receptor? An in vivo study in rodents” (European Journal of Nuclear Medicine and Molecular Imaging, 2015)
pKi: −log10 of the molar value. Where two headings read alike, the source gives them in different places.

Assays:
[1] = Ex vivo stability/metabolism in rat plasma and brain after pretreatment; parameters: species or system rats; conditions: rats, after blocking treatment
Experimental: To determine the influence of the four treatments (vehicle, MRS1523, FE@SUPPY, TQD) on uptake of [^18F]FE@SUPPY, stability was assessed in plasma and brain 60 min after tracer injection. Final blood samples (3 mL) were collected in heparin-buffered tubes, rat brains were washed with ice-cold water and homogenized in 0.9 % aqueous NaCl solution (1 mL) using an IKA T10 basic Ultra-turrax (IKA Laboratory Equipment, Staufen, Germany). […] Sample clean-up was performed by vortexing plasma with the equivalent amount of methanol/acetonitrile (9:1) for 1 min and by subsequent ultracentrifugation (10,000 rpm, 5 min) to remove precipitated proteins. The supernatants obtained were analysed by radio-HPLC (Agilent, Boeblingen, Germany) equipped with a series 1100 autosampler, a series 1200 quaternary pump, a series 1200 diode array detector and a lead-shielded BGO radiodetector. A Chromolith® Performance RP-18e (100 × 4.6 mm, 5 μm) column with a Chromolith® Performance RP-18e (4 x4 mm, 5 μm) precolumn was eluted at a flow rate of 2 mL/min using a mobile phase consisting of 60 % acetonitrile and 40 % water/acetic acid 97.5:2.5 and 32 mM ammonium acetate, pH 3.5. UV detection was performed at a wavelength of 254 nm. The retention time of [^18F]FE@SUPPY was 4.6 – 5.9 min (UV detection and radiodetection).

human A1R = tested on: human A1R; parameters: method as in earlier work; conditions: cited from earlier work
human A2AR = tested on: human A2AR; parameters: method as in earlier work; conditions: cited from earlier work
rat A3R [2] = conditions: cited from earlier work
A3R = biological target: T1, A3R (Rattus norvegicus, UniProt P28647); test: Small-animal PET in rats: baseline and A3R blocking scans; format: in vivo; conditions: blocker 2 mg/kg i.v. 30 min before tracer; for reduction in brain AUC of [^18F]FE@SUPPY as compared with DMSO administration: 0-60 min
T1 construct: Adult male Sprague-Dawley rats; from tissue; host or cells: living Sprague-Dawley rats, brain volume of interest in PET
T1 sequence (P28647 1-320): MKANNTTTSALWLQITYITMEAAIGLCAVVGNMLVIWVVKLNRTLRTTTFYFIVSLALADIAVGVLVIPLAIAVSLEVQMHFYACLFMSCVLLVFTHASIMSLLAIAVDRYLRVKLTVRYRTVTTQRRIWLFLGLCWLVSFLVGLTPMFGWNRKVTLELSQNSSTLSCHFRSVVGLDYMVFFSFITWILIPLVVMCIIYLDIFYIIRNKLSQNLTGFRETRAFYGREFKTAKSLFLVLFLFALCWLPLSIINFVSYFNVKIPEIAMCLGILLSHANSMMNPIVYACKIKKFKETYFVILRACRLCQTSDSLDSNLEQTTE
Text: A microPET Focus220 scanner (Siemens, Medical Solutions) was used for the experiments. It has 168 detector modules providing a 7.6-cm axial and 22-cm transaxial field of view. The resolution of the reconstructed images (filtered back projection) was 1.3 mm (full-width at half-maximum) in the central field of view and remained under 2 mm within the central 5 cm diameter field of view. For PET imaging two groups of animals (rats and xenografted mice) were investigated. Rats were divided into four groups. The first group received vehicle (dimethyl sulphoxide, DMSO) intravenously via a lateral tail vein 30 min prior to radiotracer administration (three animals, 14.3 – 70.1 MBq, 0.2604 ± 0.06 μg). The second group received MRS1523 – a selective A3R antagonist – at a dose of 2 mg/kg body weight (dissolved in DMSO, 4 mg/mL) intravenously via a tail vein 30 min prior to radiotracer administration (three animals, 18.8 – 59.1 MBq, 0.3443 ± 0.05 μg). The third group received unlabelled title compound FE@SUPPY (dissolved in DMSO, 4 mg/mL) at a dose of 2 mg/kg 30 min before tracer administration (three animals, 9.7 – 16.1 MBq, 0.3926 ± 0.04 μg). In the final study group, the effect of P-glycoprotein inhibition was assessed by intravenous administration of 15 mg/kg TQD (freshly dissolved on each experimental day in 2.5 % aqueous dextrose solution and injected intravenously via a tail vein at a volume of 3 mL/kg over 1 min) 60 min prior to tracer administration (three animals, 13.9 – 26.8 MBq, 0.7451 ± 0.11 μg).
Anaesthetized animals were positioned in the imaging chamber of the microPET scanner, which was kept at 38 °C throughout the experiment. A stereotactic holder attached to the bed, consisting of ear plugs and a tooth bar, was used to fix the animal's head to ensure a reproducible position during the PET studies. [^18F]FE@SUPPY (27.91 ± 13.82 MBq) dissolved in 0.48 ± 0.22 mL phosphate-buffered saline (pH 7.4) was administered as a bolus via a tail vein. Dynamic PET imaging was performed over 60 min in all animals. At the end of the PET scan the animals were killed, a terminal blood sample was collected and whole brains were removed for testing of metabolite stability.
For all PET scans (rats and xenografted mice), list mode data were acquired with an energy window of 350 – 750 keV (rats) or 250 – 750 keV (mice) and a 6-ns timing window. Before each PET scan, a transmission scan using a ^57Co point source was recorded over 10 min. The PET data from the 60-min dynamic scans were sorted into three-dimensional sinograms according to the following frame sequence: 6 × 20 s, 5 × 60 s, 4 × 120 s, 3 × 300 s and 3 × 600 s. For the 90-min scans (in the xenografted mice) the following frame sequence was used: 8 × 5 s, 2 × 10 s, 2 × 30 s, 3 × 60 s, 2 × 150 s, 2 × 300 s, 4 × 600 s and 2 × 900 s. PET images were reconstructed by Fourier rebinning followed by filtered back projection with a ramp filter. The resulting voxel size was 0.6 × 0.6 × 0.8 mm for rats or 0.4 × 0.4 × 0.8 mm for mice. The standard data correction protocol (normalization, attenuation and decay correction) was applied to the data. A calibration factor for converting units of microPET images into absolute radioactivity concentration units was first generated by imaging a phantom filled with a known concentration of [^18F]FDG.
Rat brains were manually outlined on multiple planes of the PET summation images using the image analysis software PMOD 3.1 (Pmod Ltd, Zürich, Switzerland) or Amide. Volumes of interest in the brain or solid tissue mass (xenografts) were transferred to the PET images of the individual time frames and time–activity curves (TACs) expressed in units of kilobecquerels per millilitre were calculated. To facilitate comparison of TACs of different animals, radioactivity concentrations were normalized to dose and weight and expressed as standardized uptake value (SUV, %ID/cm^3 or %ID/g). […]

rat A3R [3] = test: Affinity for rat A3R (literature binding data); conditions: ratio of Ki values
human A3R = biological target: human A3R; parameters: method as in PMID 10052977; conditions: read-out: Ki, affinity for human A3R; cited from earlier work
[4] = biological target: T2, CHO cells expressing the human A3R (CHO-A3) (Homo sapiens, UniProt P0DMS8); test: Xenograft mouse model PET (CHO vs CHO-A3 solid tissue masses); format: in vivo, mice; conditions: xenografted mice, static image 1 h after injection
T2 construct: Karl-Norbert Klotz (University of Würzburg); host or cells: CHO cells stably transfected (CHO-A3), grown as subcutaneous masses in NMRI-nu/nu mice
T2 sequence (P0DMS8 1-318): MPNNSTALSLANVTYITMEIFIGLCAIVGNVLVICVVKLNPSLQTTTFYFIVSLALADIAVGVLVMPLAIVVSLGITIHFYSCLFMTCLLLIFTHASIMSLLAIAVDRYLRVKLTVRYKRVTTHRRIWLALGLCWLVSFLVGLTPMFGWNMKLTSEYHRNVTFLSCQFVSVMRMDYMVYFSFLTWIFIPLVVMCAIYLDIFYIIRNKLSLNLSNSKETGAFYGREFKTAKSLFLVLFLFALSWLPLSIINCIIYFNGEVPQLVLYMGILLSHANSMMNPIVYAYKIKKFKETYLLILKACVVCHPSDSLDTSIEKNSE
Experimental: Adult male Sprague-Dawley rats (Him:OFA; Animal Research Institute, Himberg, Austria) weighing 307 ± 35 g were kept under controlled environmental conditions (22 ± 1 °C, 40 – 70 % humidity, 12-h light/dark cycle) with free access to standard laboratory animal diet and tap water. Before being used in the experiments, the animals were allowed to adapt to the new conditions for at least a week. Prior to each experiment, the animals were placed in a chamber containing 2.5 % isoflurane in oxygen. When unconscious, the animals were taken from the chamber and kept under anaesthesia with 1.8 % isoflurane administered via a mask during the whole experiment. Pathogen-free, female NMRI-nu/nu mice (Taconic, Denmark) weighing 28.1 ± 0.8 g were housed under sterile conditions. Mice were injected subcutaneously into both upper flanks with 100 μL of a cell suspension in phosphate-buffered saline containing 10^6 CHO cells (right side) or 10^6 CHO-A3 cells (left side). During the imaging periods of 60 or 90 min (rats or xenografted mice, respectively) the isoflurane level was adjusted depending on the depth of anaesthesia. A humidifier was used to moisten the gas mixture before supplying it to the animal.
Around 17 days after cell inoculation, animals in the xenograft group were positioned in the imaging chamber and a dynamic 90-min PET scan was initiated at the start of [^18F]FE@SUPPY injection (2.21 ± 0.75 MBq dissolved in 100 μl physiological saline, pH 7.4; three animals) via a tail vein under isoflurane anaesthesia (2 %). Additionally, in this group, [^18F]FDG PET was performed 1 day prior to the [^18F]FE@SUPPY experiments. […] In brief, mice were deprived of food for 6 – 8 h before [^18F]FDG injection via a tail vein. Mice had access to drinking water at all times. Body warming was achieved by placing the entire cage on a heating pad kept at 38 °C. Warming was started around 30 min before tracer injection and was continued throughout the uptake and imaging period. [^18F]FDG (6.03 ± 1.31 MBq dissolved in 100 μL physiological saline, pH 7.4; three animals) was injected via a tail vein under isoflurane anaesthesia (2 %). Mice were kept under isoflurane anaesthesia throughout the whole uptake and imaging period. A 10-min static image was acquired at 1 h after [^18F]FDG injection. […]
For all PET scans (rats and xenografted mice), list mode data were acquired with an energy window of 350 – 750 keV (rats) or 250 – 750 keV (mice) and a 6-ns timing window. Before each PET scan, a transmission scan using a ^57Co point source was recorded over 10 min. […] A calibration factor for converting units of microPET images into absolute radioactivity concentration units was first generated by imaging a phantom filled with a known concentration of [^18F]FDG. […]

[5] = read-out: Ki, affinity for rat A3R

| Compound | reduction in plasma concentration of [^18F]FE@SUPPY at 60 min after injection [1] | pKi (rat A3R [2]; [5]) | reduction in peak brain activity of [^18F]FE@SUPPY as compared with DMSO administration (A3R) | reduction in brain AUC of [^18F]FE@SUPPY as compared with DMSO administration (A3R) | also measured |
| --- | --- | --- | --- | --- | --- |
| CCSC(=O)c1c(CC)nc(-c2ccccc2)c(C(=O)OCCF)c1CC [FE@SUPPY] | 27% | 6.22 | 16.7% | 5.4% | affinity for human A1R (human A1R): micromolar range; affinity for human A2AR (human A2AR): micromolar range |
| CCCOC(=O)c1c(-c2ccccc2)nc(CC)c(C(=O)SCC)c1CCC [MRS1523, reference compound] | 36% | 6.95 | 34.1% | 27.6% | fold higher affinity of MRS1523 for rat A3R compared with FE@SUPPY (rat A3R [3]): 5.31 fold |
| CCSC(=O)c1c(CC)nc(-c2ccccc2)c(C(=O)OCCF)c1CC [[^18F]FE@SUPPY, 5-(2-[^18F]fluoroethyl)-2,4-diethyl-3-(ethylsulfanylcarbonyl)-6-phenylpyridine-5-carboxylate] | – | – | – | – | pKi (rat A3R [2]; read-out: Ki, affinity towards rat A3R): 6.22; pKi (human A3R): 8.38 |
| [^18F]FDG [reference compound] | – | – | – | – | uptake in CHO tissue mass [4]: 5.4 %ID/g; uptake in CHO-A3 tissue mass [4]: 6.3 %ID/g |
